In brackets after ≈: the same amount, converted by molar mass.
Tests used:
Escherichia coli = assay: Minimum inhibitory concentration against Escherichia coli (ATCC 25922); type: functional
Staphylococcus aureus = assay: Minimum inhibitory concentration against Staphylococcus aureus (ATCC 6538); type: functional
[1] = Minimum inhibitory concentration against Pseudomonas aeruginosa; type: functional, […] aeruginosa
Klebsiella pneumoniae = assay: Minimum inhibitory concentration against Klebsiella pneumoniae (ATCC 13883); type: functional
[2] = system: Staphylococcus epidermidis; assay: Minimum inhibitory concentration against Staphylococcus epidermidis (ATCC 12228); type: functional
Staphylococcus hominis = assay: Minimum inhibitory concentration against Staphylococcus hominis (ATCC 27844); type: functional

Row | Compound | MIC50 (Escherichia coli) [µM] | MIC50 (Staphylococcus aureus) [µM] | MIC50 [1] [µM] | MIC50 (Klebsiella pneumoniae) [µM] | MIC50 [2] [µM] | MIC50 (Staphylococcus hominis) [µM]
1 | CC(=O)OCC1=CCC[C@@H]2[C@@](C)(CC[C@H](C)CC(=O)O)[C@H](C)CC[C@]12C | 1370 (≈ 499 µg/mL) | 85 (≈ 31 µg/mL) | 1370 (≈ 499 µg/mL) | 1370 (≈ 499 µg/mL) | 85 (≈ 31 µg/mL) | 85 (≈ 31 µg/mL)
2 | C=C[C@](C)(O)CC[C@@H]1[C@@]2(C)CCCC(C)(C)[C@@H]2CC[C@@]1(C)O [SCLAREOL] | – | 320 (≈ 98.7 µg/mL) | – | – | 320 (≈ 98.7 µg/mL) | 320 (≈ 98.7 µg/mL)
3 | C[C@@H](CC[C@@]1(C)[C@H](C)CC[C@]2(C)C(CO)=CCC[C@H]12)CC(=O)O | 930 (≈ 300 µg/mL) | 1240 (≈ 400 µg/mL) | 930 (≈ 300 µg/mL) | 930 (≈ 300 µg/mL) | 1240 (≈ 400 µg/mL) | 1240 (≈ 400 µg/mL)
4 | CN[C@@H]1[C@H](O[C@H]2[C@H](O[C@H]3[C@H](O)[C@@H](O)[C@H](N=C(N)N)[C@@H](O)[C@@H]3N=C(N)N)O[C@@H](C)[C@]2(O)C=O)O[C@@H](CO)[C@H](O)[C@H]1O [STREPTOMYCIN] | 0.6 (≈ 0.349 µg/mL) | 2.1 (≈ 1.22 µg/mL) | – | 0.6 (≈ 0.349 µg/mL) | 2.1 (≈ 1.22 µg/mL) | 2.1 (≈ 1.22 µg/mL)
